Assays:
[1] = target: T1, CYP2C8 (Homo sapiens, UniProt P10632); conditions: read-out: IC50, CYP2C8, known inhibitor; cited from earlier work
T1 sequence (P10632 1-490): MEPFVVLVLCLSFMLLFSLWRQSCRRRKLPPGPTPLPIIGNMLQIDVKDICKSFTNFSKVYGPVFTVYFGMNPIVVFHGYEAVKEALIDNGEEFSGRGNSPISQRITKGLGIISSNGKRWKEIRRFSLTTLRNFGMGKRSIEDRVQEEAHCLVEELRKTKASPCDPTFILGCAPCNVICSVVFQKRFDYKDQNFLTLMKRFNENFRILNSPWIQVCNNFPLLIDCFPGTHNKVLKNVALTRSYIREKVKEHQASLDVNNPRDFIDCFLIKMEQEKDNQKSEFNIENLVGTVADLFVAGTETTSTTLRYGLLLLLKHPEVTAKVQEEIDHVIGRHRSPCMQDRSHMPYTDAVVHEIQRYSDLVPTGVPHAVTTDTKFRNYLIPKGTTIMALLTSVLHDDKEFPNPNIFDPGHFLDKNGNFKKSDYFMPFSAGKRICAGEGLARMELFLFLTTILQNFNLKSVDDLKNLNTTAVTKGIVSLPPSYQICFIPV

[2] = target: T2, UGT2B7 (Homo sapiens, UniProt P16662); assay: Inhibition of UGT2B7 (naloxone glucuronidation) in human liver microsomes; type: in vitro ADME; conditions: substrate naloxone; HLMs
T2 construct: tissue XenoTech XTreme 200; host or cells: pooled human liver microsomes
T2 sequence (P16662 24-529): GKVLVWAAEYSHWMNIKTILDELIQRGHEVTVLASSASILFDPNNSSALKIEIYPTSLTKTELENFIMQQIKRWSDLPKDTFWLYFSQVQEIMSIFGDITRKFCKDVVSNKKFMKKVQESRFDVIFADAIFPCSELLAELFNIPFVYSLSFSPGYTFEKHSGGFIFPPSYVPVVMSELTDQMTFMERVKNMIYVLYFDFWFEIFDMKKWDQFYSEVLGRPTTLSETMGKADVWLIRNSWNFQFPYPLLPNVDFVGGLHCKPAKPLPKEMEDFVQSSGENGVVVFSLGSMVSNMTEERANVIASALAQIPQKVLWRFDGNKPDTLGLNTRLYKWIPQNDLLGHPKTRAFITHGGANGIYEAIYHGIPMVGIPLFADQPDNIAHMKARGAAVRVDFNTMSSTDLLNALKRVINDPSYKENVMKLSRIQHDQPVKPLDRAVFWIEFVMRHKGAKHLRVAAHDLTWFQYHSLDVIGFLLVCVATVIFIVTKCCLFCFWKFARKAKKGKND
Protocol: (§1) The ability of selamariscina A to inhibit the metabolism of six UGT enzyme probe substrates was evaluated using previously developed methods with minor modifications. The microsomal incubation was performed by dividing the non-interactive substrate cocktail sets (set A included SN-38 for UGT1A1, CDCA for UGT1A3 and TFP for UGT1A4 while set B included N-SER for UGT1A6, MPA for UGT1A9 and NX for UGT2B7) (Table 2). In brief, HLMs (0.25 mg/mL) were activated by incubation in the presence of alamethicin (25 µg/mL) for 15 min on ice. After the addition of UGT probe substrates and inhibitor (0, 0.5, 2, 5, 20 and 50 μM), the incubation mixtures were pre-incubated at 37 °C for 5 min. […] After centrifugation at 18,000 g (5 min, 4 °C), aliquots of supernatants were analyzed by LC–MS/MS. […]
(§2) All metabolites and the IS were separated on a Kinetex XB-C18 column (100 × 2.10 mm, 2.6 μm, 100 Å; Phenomenex, Torrance, CA, USA) and analyzed using a Shimadzu LCMS 8060 triple-quadrupole mass spectrometer coupled with a Nexera X2 ultra high-performance liquid chromatography system (Shimadzu, Kyoto, Japan) equipped with an electrospray ionization interface. […] Quantitation was conducted in selected reaction monitoring (SRM) modes with the precursor-to-product ion transition for each metabolite (Table 1 and Table 2).
(§3) We analyzed the data with Shimadzu LabSolution LC–MS software. […]

[3] = target: T3, UGT1A4 (Homo sapiens, UniProt P22310); assay: Inhibition of UGT1A4 (trifluoperazine glucuronidation) in human liver microsomes; type: in vitro ADME; conditions: substrate trifluoperazine; HLMs; average ± standard error
T3 construct: tissue XenoTech XTreme 200; host or cells: pooled human liver microsomes
T3 sequence (P22310 29-534): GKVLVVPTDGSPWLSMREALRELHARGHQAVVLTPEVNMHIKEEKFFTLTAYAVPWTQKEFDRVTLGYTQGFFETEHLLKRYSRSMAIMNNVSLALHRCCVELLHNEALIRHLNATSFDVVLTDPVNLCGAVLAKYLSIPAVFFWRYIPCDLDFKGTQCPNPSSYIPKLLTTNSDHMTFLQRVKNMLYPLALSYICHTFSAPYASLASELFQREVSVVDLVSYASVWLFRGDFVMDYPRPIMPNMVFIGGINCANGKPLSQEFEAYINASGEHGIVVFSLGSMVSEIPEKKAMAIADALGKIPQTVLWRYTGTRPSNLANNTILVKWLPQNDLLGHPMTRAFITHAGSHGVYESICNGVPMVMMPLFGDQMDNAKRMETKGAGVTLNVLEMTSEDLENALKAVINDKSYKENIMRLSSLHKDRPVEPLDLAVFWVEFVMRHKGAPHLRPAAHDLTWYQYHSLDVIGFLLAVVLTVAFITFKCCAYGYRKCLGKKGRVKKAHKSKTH
Protocol: as §1, §2, §3

[4] = target: CYP2C9 (Homo sapiens, UniProt P11712); assay: Inhibition of CYP2C9-catalyzed tolbutamide 4-hydroxylation in human liver microsomes; type: in vitro ADME; set-up: incubation mixtures containing pooled human liver microsomes (HLMs, XTreme 200, XenoTech); tissue XenoTech XTreme 200; host or cells: pooled human liver microsomes; conditions: HLMs
Chain of CYP2C9 (P11712 whole entry): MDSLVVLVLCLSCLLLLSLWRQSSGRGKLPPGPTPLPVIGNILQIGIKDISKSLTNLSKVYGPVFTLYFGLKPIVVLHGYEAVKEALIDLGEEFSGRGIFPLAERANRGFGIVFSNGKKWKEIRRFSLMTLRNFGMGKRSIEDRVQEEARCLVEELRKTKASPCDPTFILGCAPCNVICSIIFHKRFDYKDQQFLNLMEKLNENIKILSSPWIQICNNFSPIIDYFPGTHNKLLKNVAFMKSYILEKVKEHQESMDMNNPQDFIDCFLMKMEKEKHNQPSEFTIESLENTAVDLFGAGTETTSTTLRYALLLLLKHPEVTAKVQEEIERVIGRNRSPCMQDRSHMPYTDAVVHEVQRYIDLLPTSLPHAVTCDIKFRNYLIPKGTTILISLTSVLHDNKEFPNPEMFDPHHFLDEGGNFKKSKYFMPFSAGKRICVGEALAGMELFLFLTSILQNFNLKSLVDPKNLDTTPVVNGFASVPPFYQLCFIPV
From the text: We used HLMs to determine the mechanisms and constants (Ki values) for […] A inhibition of CYP1A2, CYP2B6, CYP2C8, CYP2C9 and CYP3A. […] The substrates were used at concentrations approximately near to their respective Km values. […] The other conditions were the same as in the cytochrome P450 inhibition study. […] Phenomenex, Torrance, CA, USA) and analyzed using a Shimadzu LCMS 8060 triple-quadrupole mass spectrometer coupled with a Nexera X2 ultra high-performance liquid chromatography system (Shimadzu, Kyoto, Japan) equipped with an electrospray ionization interface. The mobile phase consisted of 0.1% formic acid in water (A) and 0.1% formic acid in acetonitrile (B). […] The flow rate was 0.2 mL/min. Electrospray ionization was performed in positive-ion mode at 4000 V or in negative-ion mode at -3500 V. The optimum operating conditions were determined as follows: vaporizer temperature, 300 °C; capillary temperature, 350 °C; collision gas (argon) pressure, 1.5 mTorr. Quantitation was conducted in selected reaction monitoring (SRM) modes with the precursor-to-product ion transition for each metabolite (Table 1 and Table 2). We analyzed the data with Shimadzu LabSolution LC-MS software. The IC50 values were calculated by WinNonlin software (Pharsight, Mountain View, CA, USA). […]

Row | IC50 [2] | IC50 [3] | Mode of Inhibition, CYP2C9 tolbutamide [4] | Ki ([4]; average ± standard error, triplicate) | SMILES | IC50 [1]
1 |  |  |  |  | CC(C)(O)c1ccccc1CC[C@@H](SCC1(CC(=O)O)CC1)c1cccc(/C=C/c2ccc3ccc(Cl)cc3n2)c1 [montelukast, reference compound] | 20 nM
2 | > 50000 nM | 7700 ± 1900 nM | Noncompetitive | 65 ± 10 nM | O=C1CC(c2cc(-c3c(O)ccc4c(=O)cc(-c5ccc(O)cc5)oc34)c(O)cc2O)Oc2cc(O)cc(O)c21 (centres unmarked) [selamariscina A] | 

Source: publication PMC7238120, “Strong and Selective Inhibitory Effects of the Biflavonoid Selamariscina A against CYP2C8 and CYP2C9 Enzyme Activities in Human Liver Microsomes” (Pharmaceutics, 2020)
